Test results: US6737383B1, “Herbicidal oxadiazolidines” (priority 1999, dated 2004)

Assays:
corn = assay: Test B pre/postemergence corn; type: in vivo, Zea mays
In short: (§1)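 Herbicidal effect was estimated by eye on a ten-point control scale after plants spent twelve to sixteen days in a greenhouse following soil or foliar treatment. Foliar sprays targeted plants at one to four leaves; all doses were formulated in a non-phytotoxic solvent with surfactant.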

crabgrass = assay: Test B pre/postemergence crabgrass; type: in vivo, Digitaria sanguinalis
In short: as §1

sugar beet = assay: Test B pre/postemergence sugar beet; type: in vivo, Beta vulgaris; conditions: for Plant response rating, Sugarbeets: Rate 250 g/ha
In short: as §1

rice = assay: Test B flood test rice; type: in vivo, Oryza sativa
In short: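 Each value is a visual injury score relative to controls, with 10 meaning complete control and 0 no effect. Evaluation took place twelve to sixteen days after the 2-leaf-stage plants were treated and kept in the greenhouse.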

bermuda-grass = assay: Test D bermudagrass; type: in vivo, Cynodon dactylon; conditions: Preemergence, 0 to 100 scale
In short: (§2)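 Seeds were sown in greenhouse pots, one species per pot or compartment. Compounds were in a non-phytotoxic solvent mixture with surfactant; preemergence applications went on the sandy loam surface within one day of planting. Injury was rated visually after 14 to 21 days, 0 (none) to 100 (complete control).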

common groundsel = assay: Test D common groundsel; type: in vivo, Senecio vulgaris; conditions: Preemergence, 0 to 100 scale
In short: as §2

goosegrass = assay: Test D goosegrass; type: in vivo, Eleusine indica; conditions: Preemergence, 0 to 100 scale
In short: as §2

pitted morningglory = assay: Test D pitted morningglory; type: in vivo, Ipomoea lacunosa; conditions: Preemergence, 0 to 100 scale
In short: as §2

purple nutsedge = assay: Test D purple nutsedge; type: in vivo, Cyperus rotundus; conditions: Preemergence, 0 to 100 scale
In short: as §2

surinam grass = assay: Test D surinam grass; type: in vivo, Brachiaria decumbens; conditions: Preemergence, 0 to 100 scale
In short: as §2

winter wheat [1] = assay: Test E winter wheat; type: in vivo, Triticum aestivum; conditions: Postemergence
In short: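 Postemergence: spray at 1–4 leaf stage, soil 60:40 sandy loam:potting mix; solvent + surfactant formulation; greenhouse 21–28 d; visual injury vs untreated controls.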

blackgrass = assay: Test E blackgrass; type: in vivo, Alopecurus myosuroides; conditions: Preemergence
green foxtail = assay: Test E green foxtail; type: in vivo, Setaria viridis; conditions: Preemergence
Italian ryegrass = assay: Test E Italian ryegrass; type: in vivo, Lolium multiflorum; conditions: Preemergence
winter wheat [2] = assay: Test E winter wheat; type: in vivo, Triticum aestivum; conditions: Preemergence
wild oat = assay: Test E wild oat; type: in vivo, Avena fatua; conditions: Preemergence, 0 to 100 scale where 0 is no effect and 100 is complete control
winter barley = assay: Test E winter barley; type: in vivo, Hordeum vulgare; conditions: Preemergence
[3] = Postemergence, Rate 62 g/ha, scale 0 to 10, 0 is no effect, 10 is complete control
[4] = Postemergence, Rate 125 g/ha, scale of 0 to 10 where 0 is no effect and 10 is complete control
[5] = Postemergence, Rate 250 g/ha, scale 0 to 10, 0 no effect, 10 complete control
[6] = Preemergence, Rate 62 g/ha, scale 0 to 10 (0 no effect, 10 complete control)
[7] = Preemergence, Rate 125 g/ha, scale 0 to 10 (0 no effect, 10 complete control)
[8] = Preemergence, Rate 250 g/ha, scale of 0 to 10 where 0 is no effect and 10 is complete control
[9] = Preemergence, Rate 500 g/ha, scale 0 (no effect) to 10 (complete control)
[10] = Rate 500 g/ha, Postemergence, scale 0 to 10, 0 no effect, 10 complete control
[11] = Rate 125 g/ha, 0 no injury, 100 complete control
[12] = Rate 500 g/ha, 0 to 100 scale where 0 is no effect and 100 is complete control
[13] = Rate 1000 g/ha, 0 to 100 scale where 0 is no effect and 100 is complete control

Structure (SMILES): CC(C)N(C(=O)n1oc(=O)n(Cc2ccccc2)c1=O)c1ccccc1 [Compound 94]
- Corn plant response rating (corn; [3]): 0
- Corn plant response rating (corn; [4]): 0
- Corn plant response rating (corn; [5]): 0
- Corn plant response rating (corn; [6]): 0
- Plant response rating, Corn (corn; [7]): 2
- Plant response rating, Corn (corn; [8]): 3
- Corn plant response rating (corn; [9]): 6
- Corn plant response rating (corn; [10]): 0
- Crabgrass plant response rating (crabgrass; [3]): 3
- Crabgrass plant response rating (crabgrass; [4]): 3
- Crabgrass plant response rating (crabgrass; [5]): 8
- Crabgrass plant response rating (crabgrass; [6]): 3
- Plant response rating, Crabgrass (crabgrass; [7]): 3
- Plant response rating, Crabgrass (crabgrass; [8]): 6
- Crabgrass plant response rating (crabgrass; [9]): 10
- Crabgrass plant response rating (crabgrass; [10]): 9
- Sugarbeets plant response rating (sugar beet; [3]): 2
- Sugarbeets plant response rating (sugar beet; [4]): 2
- Sugarbeets plant response rating (sugar beet; [6]): 0
- Sugarbeets plant response rating (0 to 10 scale) (sugar beet; Preemergence, Rate 125 g/ha, 0 is no effect, 10 is complete control): 0
- Plant response rating, Sugarbeets (sugar beet; Preemergence, scale of 0 to 10 where 0 is no effect and 10 is complete control): 0
- Sugarbeets plant response rating (sugar beet; [9]): 2
- Plant response rating, Sugarbeets (sugar beet; Postemergence, scale 0 to 10, 0 is no effect, 10 is complete control): 2
- Sugarbeets plant response rating (sugar beet; [10]): 3
- Rice plant response rating (rice; Postemergence (flood test species), Rate 125 g/ha, scale of 0 to 10 where 0 is no effect and 10 is complete control): 0
- Rice plant response rating (rice; [3]): 0
- Plant response rating, Rice (rice; Rate 250 g/ha, Postemergence (flood test), scale 0 to 10, 0 is no effect, 10 is complete control): 0
- Rice plant response rating (rice; Rate 250 g/ha, headed Pre-emergence (flood test species), scale 0 to 10 (0 no effect, 10 complete control)): 0
- Plant response rating, Rice (rice; Rate 500 g/ha, headed Pre-emergence (flood test species), scale 0 to 10 (0 no effect, 10 complete control)): 0
- Rice plant response rating (rice; Rate 500 g/ha, listed under Postemergence (flood test species), scale 0 to 10, 0 no effect, 10 complete control): 0
- Rice plant response rating (rice; Rate 1000 g/ha, Pre-emergence (as headed), scale 0 to 10): 0
- Rice plant response rating (rice; Rate 2000 g/ha, Pre-emergence (as headed), scale 0 to 10): 0
- Plant response rating, Bermudagrass (bermuda-grass; [11]): 90
- Plant response rating, Bermudagrass (bermuda-grass; Rate 500 g/ha): 100
- Plant response rating, Com. groundsel (common groundsel; [11]): 75
- Plant response rating, Com. groundsel (common groundsel; Rate 500 g/ha): 100
- Plant response rating, Goosegrass (goosegrass; [11]): 85
- Plant response rating, Goosegrass (goosegrass; Rate 500 g/ha): 100
- Plant response rating, P. morninglory (pitted morningglory; [11]): 0
- Plant response rating, P. morninglory (pitted morningglory; Rate 500 g/ha): 0
- Purple nutsedge plant response rating (purple nutsedge; [11]): 50
- Plant response rating, Purple nutsedge (purple nutsedge; Rate 500 g/ha): 50
- Surinam grass plant response rating (surinam grass; [11]): 80
- Plant response rating Surinam grass (surinam grass; Rate 500 g/ha): 90
- Plant response rating, Wheat (winter) (winter wheat [1]; Rate 250 g/ha, 0 to 100 scale (0 no effect, 100 complete control)): 0
- Plant response rating, Wheat (winter) (winter wheat [1]; Rate 1000 g/ha, 0 to 100 scale, 0 is no effect and 100 is complete control): 0
- Plant response rating, Wheat (winter) (winter wheat [1]; Rate 500 g/ha, 0 to 100 scale, 0 no effect, 100 complete control): 0
- Plant response rating, Blackgrass (blackgrass; Rate 250 g/ha, 0 to 100 scale): 60
- Plant response rating, Blackgrass (blackgrass; [12]): 60
- Plant response rating, Blackgrass (blackgrass; [13]): 60
- Plant response rating, Green foxtail (green foxtail; Rate 250 g/ha, 0 to 100 scale): 80
- Plant response rating, Green foxtail (green foxtail; [12]): 90
- Plant response rating, Green foxtail (green foxtail; [13]): 100
- Plant response rating, I. Ryegrass (Italian ryegrass; Rate 250 g/ha, 0 to 100 scale): 40
- Plant response rating, I. Ryegrass (Italian ryegrass; [12]): 60
- Plant response rating, I. Ryegrass (Italian ryegrass; [13]): 60
- Plant response rating, Wheat (winter) (winter wheat [2]; Rate 250 g/ha, 0 to 100 scale): 30
- Plant response rating, Wheat (winter) (winter wheat [2]; [12]): 30
- Plant response rating, Wheat (winter) (winter wheat [2]; [13]): 40
- Plant response rating, Wild oat (wild oat; Rate 500 g/ha): 40
- Plant response rating, Wild oat (wild oat; Rate 1000 g/ha): 50
- Plant response rating, Barley (winter) (winter barley; Rate 250 g/ha, 0 to 100 scale): 40
- Plant response rating, Barley (winter) (winter barley; [12]): 50
- Plant response rating, Barley (winter) (winter barley; [13]): 50
